Reference: PMC4579270, “Identification and Characterization of an Irreversible Inhibitor of CDK2” (Chemistry & Biology, 2015)
Like-named read-outs stand apart in the source and are kept apart here.

Columns and labels:
Assay in all cases: Dundee kinase screen re-test (standard format and 4 hour pre-incubation)
Assay type in all cases: biochemical
PDK1 = target: T1, PDK1 (Homo sapiens, UniProt O15530); conditions: PDK1, 0.5µM
T1 sequence (O15530 1-556): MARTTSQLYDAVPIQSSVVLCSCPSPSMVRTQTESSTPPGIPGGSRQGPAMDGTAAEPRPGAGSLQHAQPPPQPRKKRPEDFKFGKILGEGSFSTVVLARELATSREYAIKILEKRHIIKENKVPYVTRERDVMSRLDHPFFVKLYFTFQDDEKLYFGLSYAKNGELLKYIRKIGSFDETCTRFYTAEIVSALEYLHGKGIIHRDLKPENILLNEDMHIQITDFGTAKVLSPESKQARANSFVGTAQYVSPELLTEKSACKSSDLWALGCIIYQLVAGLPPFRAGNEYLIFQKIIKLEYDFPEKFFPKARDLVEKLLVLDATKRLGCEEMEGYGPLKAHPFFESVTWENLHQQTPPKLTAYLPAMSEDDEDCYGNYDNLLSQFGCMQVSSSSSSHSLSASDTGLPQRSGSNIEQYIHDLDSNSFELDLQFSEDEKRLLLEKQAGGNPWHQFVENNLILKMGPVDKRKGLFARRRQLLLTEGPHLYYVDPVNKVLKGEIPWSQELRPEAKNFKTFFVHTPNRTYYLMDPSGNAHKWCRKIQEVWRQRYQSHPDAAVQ
Experimental: (§1) Prior to determining its cellular activity, we carried out a screen to assess its selectivity against a panel of 131 protein kinases under conditions that would not distinguish between a reversible or irreversible mode of action. […] These 13 kinases and 29 additional kinases, selected for their known sensitivity to other inhibitors within the purine series, were then tested in a modified screening format in which the assay was repeated following a 4-hr pre-incubation (Table S3B). […] However, conformational flexibility around the active site may promote such an interaction with a residue from another part of the structure ([Martin et al., 2012]).
(§2) Table S3, Related to Figure 4. NCL-0006300 protein kinase selectivity. […]
(§3) Dundee protein kinase screen (Bain et al., 2007). […]
(§4) (B) Selected kinases were re-tested in the Dundee kinase screen against NU6300 at a single concentration of 0.5 µM both in the standard assay format and following a 4 hour pre-incubation in the presence of NU6300. Kinases which have very low activity after the 4 hour incubation so that results might not be wholly reliable are boxed in salmon. Kinases where the activity after a 4 hour pre-incubation is < 50% that in the standard assay format are highlighted in red.

CDK2-Cyclin A = CDK2-Cyclin A (Homo sapiens, UniProt P24941); conditions: for remaining activity at 0.5 µM: CDK2/cyclin A
Experimental: as §1, §2, §3, §4

JNK3 = JNK3 (Homo sapiens, UniProt P53779); conditions: JNK3, 0.5µM
Experimental: as §1, §2, §3, §4

ASK1 = target: T2, ASK1 (Homo sapiens, UniProt Q99683); conditions: ASK1, 0.5µM
T2 sequence (Q99683 1-1374): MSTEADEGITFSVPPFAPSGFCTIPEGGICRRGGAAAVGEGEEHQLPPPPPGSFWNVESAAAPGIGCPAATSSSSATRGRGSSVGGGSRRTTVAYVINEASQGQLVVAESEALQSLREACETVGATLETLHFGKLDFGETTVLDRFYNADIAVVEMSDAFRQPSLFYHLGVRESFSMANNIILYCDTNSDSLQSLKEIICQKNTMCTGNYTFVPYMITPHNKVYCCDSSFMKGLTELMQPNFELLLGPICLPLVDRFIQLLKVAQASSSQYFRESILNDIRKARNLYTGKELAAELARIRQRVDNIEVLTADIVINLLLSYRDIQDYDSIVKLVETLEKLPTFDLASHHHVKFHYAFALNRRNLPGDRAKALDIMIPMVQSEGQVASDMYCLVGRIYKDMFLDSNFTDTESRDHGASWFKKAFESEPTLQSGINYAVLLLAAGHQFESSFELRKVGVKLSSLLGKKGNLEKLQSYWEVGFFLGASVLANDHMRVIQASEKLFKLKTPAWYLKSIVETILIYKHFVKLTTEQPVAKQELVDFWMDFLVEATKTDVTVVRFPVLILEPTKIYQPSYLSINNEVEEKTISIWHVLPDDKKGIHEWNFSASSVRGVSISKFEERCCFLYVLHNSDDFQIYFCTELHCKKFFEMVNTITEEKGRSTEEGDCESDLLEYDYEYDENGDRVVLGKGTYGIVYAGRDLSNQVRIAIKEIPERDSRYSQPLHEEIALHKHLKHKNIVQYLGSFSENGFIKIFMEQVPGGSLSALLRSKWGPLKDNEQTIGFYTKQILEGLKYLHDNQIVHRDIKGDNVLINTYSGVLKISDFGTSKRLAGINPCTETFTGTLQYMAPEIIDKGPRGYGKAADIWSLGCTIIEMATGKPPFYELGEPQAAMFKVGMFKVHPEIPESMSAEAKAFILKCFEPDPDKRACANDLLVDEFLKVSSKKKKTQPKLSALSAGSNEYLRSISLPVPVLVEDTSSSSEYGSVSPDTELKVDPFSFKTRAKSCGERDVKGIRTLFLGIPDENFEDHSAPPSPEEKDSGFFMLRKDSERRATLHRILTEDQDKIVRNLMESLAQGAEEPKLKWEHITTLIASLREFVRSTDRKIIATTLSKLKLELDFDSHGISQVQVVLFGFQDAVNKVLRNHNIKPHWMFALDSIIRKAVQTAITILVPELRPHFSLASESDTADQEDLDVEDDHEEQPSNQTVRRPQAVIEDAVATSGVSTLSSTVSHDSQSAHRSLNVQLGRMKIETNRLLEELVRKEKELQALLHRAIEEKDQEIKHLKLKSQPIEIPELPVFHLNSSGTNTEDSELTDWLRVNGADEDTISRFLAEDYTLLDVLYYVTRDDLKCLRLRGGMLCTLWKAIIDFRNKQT
Experimental: as §1, §2, §3, §4

[1] = 4hr RT preincubation, read-out: %Remaining activity at 0.5µM NU6300 - 4hr RT preincubation
[2] = usual format, read-out: %Remaining activity at 0.5µM NU6300 - Usual assay format

Chain of JNK3 (P53779 whole entry): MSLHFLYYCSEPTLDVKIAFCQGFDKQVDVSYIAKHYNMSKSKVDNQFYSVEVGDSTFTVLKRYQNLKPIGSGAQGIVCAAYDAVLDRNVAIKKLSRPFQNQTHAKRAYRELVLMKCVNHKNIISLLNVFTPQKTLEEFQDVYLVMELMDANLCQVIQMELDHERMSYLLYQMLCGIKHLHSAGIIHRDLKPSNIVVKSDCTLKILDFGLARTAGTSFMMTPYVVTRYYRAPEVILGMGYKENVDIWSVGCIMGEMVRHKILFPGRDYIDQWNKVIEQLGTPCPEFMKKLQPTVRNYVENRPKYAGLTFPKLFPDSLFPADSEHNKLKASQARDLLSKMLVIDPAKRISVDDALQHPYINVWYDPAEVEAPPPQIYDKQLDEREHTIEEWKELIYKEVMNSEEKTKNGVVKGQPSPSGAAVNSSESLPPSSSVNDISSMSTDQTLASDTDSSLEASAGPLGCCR

C=CS(=O)(=O)c1ccc(Nc2nc(OCC3CCCCC3)c3nc[nH]c3n2)cc1 [NU6300, 6-(cyclohexylmethoxy)-N-(4-(vinylsulfonyl)phenyl)-9H-purin-2-amine]
remaining activity at 0.5 µM (PDK1; [1]): 40% | remaining activity at 0.5 µM (PDK1; [2]): 29% | remaining activity at 0.5 µM (CDK2-Cyclin A; [1]): 9% | remaining activity at 0.5 µM (CDK2-Cyclin A; [2]): 26% | additional loss of activity after pre-incubation (CDK2-Cyclin A; CDK2, 4-hr pre-incubation vs usual format, 0.5 µM): > 50% | remaining activity at 0.5 µM (JNK3; [1]): 98% | remaining activity at 0.5 µM (JNK3; [2]): 53% | remaining activity at 0.5 µM (ASK1; [1]): 102% | remaining activity at 0.5 µM (ASK1; [2]): 89%
